Results from PMC10667816, “A Cell‐Penetrant Peptide Disrupting the Transcription Factor CP2c Complexes Induces Cancer‐Specific Synthetic Lethality” (Advanced Science, 2023).
“Also recorded” adds a separate entry of the source. *1 amine or outer side, *2 acyl side, *3 side chain or, on linkers, in order; H or OH if unused. Where a SMILES comes first, the peptide text is derived from it. Side-chain parts run from the residue outwards. The star is where a group is joined. γGlu = O=C(O)[C@H](CCC(=O)[*:2])N[*:1]; Palmitoyl = CCCCCCCCCCCCCCCC(=O)*

Tests used:
Hep3B = Hep3B CDX mouse model; format: in vivo
Description: Animal experiments were conducted in accordance with ethical guidelines, and all protocols were approved by the Institutional Animal Care and Use Committee under Hanyang University (approval numbers, 2014‐0016A, 2018‐0049A, 2018‐0207A, and 2019‐0169A), Chung‐Ang University (approval number, 2015‐00022), Chungbuk University (approval number, CBNUA‐1072‐17‐02), and Konkuk University (approval number, KU17130). To establish xenograft mice models, Hep3B, A431, U343, and PC9 cells were subcutaneously injected into the flank of Balb/c nude mice. For the MDA‐MB‐231 (LM1) cell line, it was implanted into the mammary fat pad of immunodeficient mice (NPG mice). Once tumors were successfully established, the animals were randomly divided into a control (vehicle) group and an experimental (drug) group. When the tumor volume reached 100 cubic millimeters, either saline or an appropriate concentration of drugs was administrated into mice via tail vein every 3 or 5 days for appropriate duration. Tumor volume was calculated using the formula of length × width^2)/2. To generate an orthotopic liver cancer mice model, 75 mg kg^−1 (mpk) of DEN was intraperitoneally injected weekly for 3 weeks into C57BL/6 mice, followed by 100 mpk of DEN weekly for the subsequent 3 weeks. After 37 weeks of liver cancer induction, mice received either saline or an appropriate concentration of drugs via the tail vein every 5 days for the designated duration. The in vivo administration amount was determined based on the concentration of ACP52C confirmed at the cellular level, which was 2 µM. Assuming an average mouse weight of 30 grams and considering that ≈5.8% of body weight constitutes blood volume,^[ [49] ^] it was calculated that the blood concentration of ACP52C should be ten times the GI50 concentration in cell culture conditions. […] For ACP52C derivatives, the amount was adjusted to ensure a similar molar quantity of peptide injection, taking their molecular weights into account. For instance, in the case of ACP52CGK, ≈1.67 times the quantity was used compared to ACP52C to achieve an equivalent molar quantity. At the time of sacrifice, major organs and tumors were removed and weighed, and blood was extracted. For histological analysis, major organs and tumors of mice were immediately fixed in 10% formalin neutral buffer solution, dehydrated through a graded series of ethanol treatments, treated with xylene, paraffin embedded, and cut into 4 µm sections. Hematoxylin and eosin (H&E)‐stained tissue sections were analyzed and photographed, and the representative histological images were recorded. Liver nodules in the DEN orthotopic liver cancer model were estimated by measuring the ratio of tumor areas over entire liver tissues in the tissue section using an Image J (version 1.51) software at 40× magnification. Complete blood count (CBC) analysis was conducted using a Hematology analyzer (scil Vet ABC) from the extracted blood.

[1] = system: normal cells derived from humans or mouse; experiment: MTT growth inhibition in normal cells; format: cell-based, human; conditions: concentrations up to 10 µM
Description: Figure S3. Anticancer effect of Pep #5-2 truncated and substitution mutants
A) Names and peptide sequences of each mutant. Peptides corresponding to each Pep #5-2 truncated or substitution mutant are linked to a cell penetration peptide, iRGD (highlighted with yellow boxes). B-E) Cell growth inhibition profiles and GI50 values of each mutant in representative cancer cell lines. GI50 values estimated from duplicated data are expressed as means ± SD . Data are presented as means ± SD of two independent biological replicates. Anticancer effect of ACP52C, ACP52-51C, ACP52-52C, and ACP52-4C (B), amino acid substitution mutants of ACP52 -4C (C), and ACP52C, ACP52-4C, ACP52-31C, and ACP52-32C (D). Cell growth inhibition was teste d in cells using MTT assay over peptide dose at 48 h after peptide treatment, and GI50 values estimated from duplicated data are expressed as means ± SD. ( E) Summary of GI50 values of each mutant in representative cancer cell lines. GI 50 values estimated from duplicated data are expressed as means ± SD. Two-tailed unpaired Student’s t-tests, ***P < 0.001; ns: non-significant. […]

[2] = system: lung cancer cells and some blood cancer cells; experiment: MTT growth inhibition in ACP52C‐resistant cells; format: cell-based, human; conditions: concentrations up to 1 mM
Description: Various cell lines were treated with peptides, either alone or in combination with the CASP2 inhibitor (Ac‐VDVAD‐CHO; Enzo ALX‐260‐058‐M001) at various concentrations for 4 days. Cell viability was assessed on day 2 or day 4 using MTT (3‐(4,5‐dimethylthiazol‐2‐yl)‐2,5‐diphenyltetrazolium bromide; Sigma–Aldrich, M2128) assay. In brief, fresh cells were seeded in flat‐bottomed 96‐well tissue culture plates at appropriate concentrations for each cell line per well using complete culture medium. The cells were incubated in 100 µL of culture medium containing various concentration of chemicals or peptides at 37 °C for 0 to 96 h. A solution of MTT (5 mg mL^−1) was added to the culture medium, and the cells were further incubated at 37 °C for an additional 3 h. The MTT medium was then removed, and the formazan crystals were dissolved in DMSO (100 µL per well). The formazan concentration was measured spectrophotometrically at 490 nm using a Varioskan Flash Spectral Scanning Multimode Reader (Thermo Scientific Korea). Nonlinear regression curves for growth inhibition and GI50 values for each cell line were estimated from independent replicates using the Prism (version 6) software (GraphPad Software Inc.)

[3] = administered at five‐day intervals
[4] = intravenous injection at three‐day intervals, Sorafenib orally once daily as positive control

## CCCCCCCCCCCCCCCC(=O)N[C@@H](CCC(=O)NCCCC[C@H](NC(=O)CNC(=O)CNC(=O)[C@@H]1CCCN1C(=O)[C@H](CCCNC(=N)N)NC(=O)[C@H](CCC(N)=O)NC(=O)[C@@H]1CCCN1C(=O)[C@H](Cc1ccc(O)cc1)NC(=O)[C@H](CC(N)=O)NC(C)=O)C(=O)NCC(=O)NCC(=O)N[C@@H](CS)C(=O)N[C@@H](CCCNC(=N)N)C(=O)NCC(=O)N[C@@H](CC(=O)O)C(=O)N[C@@H](CCCCN)C(=O)NCC(=O)N1CCC[C@H]1C(=O)N[C@@H](CC(=O)O)C(=O)N[C@@H](CS)C(N)=O)C(=O)O [ACP52CGK] (Ac-NYPQRPGGK([γGlu-Palmitoyl])GGCRGDKGPDC-NH2)
Hep3B; [3]
  anti‐tumor activity: maintained its activity; also recorded: remarkable anti‐tumor efficacy
Hep3B; [4]
  anti‐tumor activity: activity similar to that of ACP52C

## CC(=O)N[C@@H](CC(N)=O)C(=O)N[C@@H](Cc1ccc(O)cc1)C(=O)N1CCC[C@H]1C(=O)N[C@@H](CCC(N)=O)C(=O)N[C@@H](CCCNC(=N)N)C(=O)N1CCC[C@H]1C(=O)N[C@@H](CS)C(=O)N[C@@H](CCCNC(=N)N)C(=O)NCC(=O)N[C@@H](CC(=O)O)C(=O)N[C@@H](CCCCN)C(=O)NCC(=O)N1CCC[C@H]1C(=O)N[C@@H](CC(=O)O)C(=O)N[C@@H](CS)C(N)=O [ACP52C] (Ac-NYPQRPCRGDKGPDC-NH2)
Hep3B; [3]
  anti‐tumor activity: reduced anti‐tumor activity compared to the three‐day interval administration
Hep3B; [4]
  anti‐tumor activity: superior anti‐tumor activity compared to Sorafenib
[1]
  growth inhibition: did not show any growth inhibition
[2]
  growth inhibition: resistance
